Assays:
Experiment in all cases: drug sensitivity score (DSS3, normalised partial AUC of % inhibition dose-response) (DSS (score)); higher = more sensitive (stronger inhibition of viability); extreme values may be limits of the assay
FMOC02_3 = patient-derived low-grade serous ovarian cancer cells; conditions: 72 h; library: FO5A; assay format: 2D, 384-well, CellTiter-Glo
In short: (§1)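 Cells were dispensed onto 384-well flat clear-bottom plates already holding compounds at five concentrations over a 10,000-fold range, using patient-derived ovarian cancer cells at passage under 10. Incubation lasted 72 h at 37 °C in 5% CO2, after which CellTiter-Glo viability data were processed in Breeze. Higher drug sensitivity scores, each a partial area under the percent-inhibition dose-response curve divided by the log of the upper asymptote, mean more sensitive cells.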

FMOC24 = patient-derived high-grade serous ovarian cancer cells; conditions: 72 h; library: FO5A; assay format: 2D, 384-well, CellTiter-Glo
In short: as §1

FMOC02_2 = patient-derived low-grade serous ovarian cancer cells; conditions: 72 h; library: FO5A; assay format: 2D, 384-well, CellTiter-Glo
In short: as §1

FMOC25_2 = patient-derived low-grade serous ovarian cancer cells; conditions: 72 h; library: FO5A; assay format: 2D, 384-well, CellTiter-Glo
In short: as §1

FMOC22 = patient-derived mucinous ovarian cancer cells; conditions: 72 h; library: FO5A; assay format: 2D, 384-well, CellTiter-Glo
In short: as §1

FMOC25_1 = patient-derived low-grade serous ovarian cancer cells; conditions: 72 h; library: FO4B; assay format: 2D, 384-well, CellTiter-Glo
In short: as §1

FMOC14 = patient-derived high-grade serous ovarian cancer cells; conditions: 72 h; library: FO5A; assay format: 2D, 384-well, CellTiter-Glo
In short: as §1

FMOC09 = patient-derived high-grade serous ovarian cancer cells; conditions: 72 h; library: FO5A; assay format: 2D, 384-well, CellTiter-Glo
In short: as §1

FMOC03 = patient-derived mucinous ovarian cancer cells; conditions: 72 h; library: FO5A; assay format: 2D, 384-well, CellTiter-Glo
In short: as §1

FMOC06 = patient-derived mucinous ovarian cancer cells; conditions: 72 h; library: FO5A; assay format: 2D, 384-well, CellTiter-Glo
In short: as §1

SMILES	drug sensitivity score (FMOC02_3)	drug sensitivity score (FMOC24)	drug sensitivity score (FMOC02_2)	drug sensitivity score (FMOC25_2)	drug sensitivity score (FMOC22)	drug sensitivity score (FMOC25_1)	drug sensitivity score (FMOC14)	drug sensitivity score (FMOC09)	drug sensitivity score (FMOC03)	drug sensitivity score (FMOC06)
C=CC(=O)Nc1cc2c(Nc3ccc(F)c(Cl)c3)ncnc2cc1OCCCN1CCOCC1 [Canertinib]	18.7	5.3	21.8	14.6	8	10	9.5	20.8	20.6	9
Cc1nc(Nc2ncc(C(=O)Nc3c(C)cccc3Cl)s2)cc(N2CCN(CCO)CC2)n1 [Dasatinib]	20.4	4.5	19.9	7.7	0	2.8	5.1	17.1	8.4	5
Nc1nc2[nH]cnc2c(=S)[nH]1 [Thioguanine]	4.3	0.95	3.2	6.3	0	5.3	0	0	0	0
COc1cc2ncnc(Nc3ccc(F)c(Cl)c3)c2cc1NC(=O)/C=C/CN1CCCCC1 [Dacomitinib]	18	0.3	20.4	18.6	1.7	7.8	4.6	16.1	18.2	5.5
CNC(=O)CN1CCC(Oc2cc3c(Nc4cccc(Cl)c4F)ncnc3cc2OC)CC1 [Sapitinib]	13.8	0.2	14	10	0.9	9.4	4.2	10.4	14.7	0.3
CN1CCC(CNc2ccc3ncc(-c4cccc(OC(F)(F)F)c4)n3n2)CC1 [SGI-1776]	8.8	8.05	9.2	7.4	5.9	7.4	5	4.5	6.1	6.5
Cn1cc(C2=Nc3cc(NC(=O)C(N)C4CCCCC4)cc4c3C2=CNNC4=O)cn1 (stereo unspecified)	9.9	10.1	7.3	10.9	8.3	11.7	6.8	7.6	4.3	3
CN(C)Cc1ccc(S(=O)(=O)n2ccc(/C=C/C(=O)NO)c2)cc1 [Resminostat]	7.4	6.3	9.7	7.7	6.8	3.4	8.2	3.3	8.1	6.8
CN(C)c1cc2c(cc1Sc1nc3c(N)nccc3n1CCNCC(C)(C)C)OCO2 [CUDC-305]	13.9	8.05	12.9	15.2	8.9	12.2	9.3	9.7	16.1	9.8
CN1CC[C@H](c2c(O)cc(O)c3c(=O)cc(-c4ccccc4Cl)oc23)[C@H](O)C1 [Alvocidib]	22.4	18.7	21.3	19.6	12.8	19.1	15.3	10.7	17.9	17
C[C@@]1(C(=O)Nc2ccc(F)nc2)CCCN1c1nc(Nc2cc(C3CC3)n[nH]2)c2cccn2n1	18.9	2.75	14.3	14.6	9.5	9.2	2.2	14.7	7	14.7
CC[C@@]1(O)C(=O)OCc2c1cc1n(c2=O)Cc2cc3c(CN(C)C)c(O)ccc3nc2-1 [Topotecan]	15.3	7	9.7	16.8	15.6	12.7	9.4	8.4	8.1	8.2
CCN(CC)CCCC(C)Nc1c2ccc(Cl)cc2nc2ccc(OC)cc12 (stereo unspecified) [Mepacrine]	19.4	20.2	19.4	10.9	9.2	10.3	9.8	10.3	9.5	10
C[C@@H](Oc1cc(-n2cnc3ccc(CN4CCN(C)CC4)cc32)sc1C(N)=O)c1ccccc1C(F)(F)F	9.1	6.1	8.2	11.9	11.5	7.4	3.9	12.6	7.3	5.3
N#CCNC(=O)c1ccc(-c2ccnc(Nc3ccc(N4CCOCC4)cc3)n2)cc1 [Momelotinib]	9.9	5.95	6	9.3	3.2	5.4	1.7	1.2	2.4	2.7
CN1CCN(c2cc(C(=O)Nc3ccc4c(c3)-c3c(c(C(N)=O)nn3-c3ccc(F)cc3)CC4)c(Cl)cn2)CC1 [PHA 408]	6.8	9	4	11	4.6	0.6	4	4.8	5.2	4.6
Nc1ccn([C@@H]2O[C@H](CO)[C@@H](O)C2(F)F)c(=O)n1 [Gemcitabine]	17.3	6	16.3	14.6	12.7	7.6	0	10.5	2.9	5.4
NC(=O)Nc1cc(-c2cccc(F)c2)sc1C(=O)N[C@H]1CCCNC1 [AZD7762]	6.1	9.15	3.5	4.5	3.3	3.3	6.2	6.3	1.5	3.6
CNC(=O)c1ccccc1Nc1cc(Nc2ccc(N3CCOCC3)cc2OC)ncc1C(F)(F)F [VS-4718]	13.8	3.2	12	12.6	6	6.1	0.7	11.5	4.2	9.6
FC(F)c1nc2ccccc2n1-c1nc(N2CCOCC2)nc(N2CCOCC2)n1 [ZSTK474]	18.4	4.65	16.9	16.8	5.6	15.6	9.8	11.8	10.6	12.5
O=C(O)c1ccc2c(c1)nc(Nc1cccc(Cl)c1)c1ccncc12 [Silmitasertib]	6.3	2.55	4.1	5.2	6	3.6	4.9	4.5	7	6.9
O=C(O)C(=O)O.[NH-][C@@H]1CCCC[C@H]1[NH-].[Pt+2] [Oxaliplatin]	9.9	11.3	7.5	5.7	9.6	8.9	6.8	14.9	8.8	7
C=CC(=O)N1CCC[C@@H](n2nc(-c3ccc(Oc4ccccc4)cc3)c3c(N)ncnc32)C1 [Ibrutinib]	7.3	0.5	10.2	6.5	0	5.6	2.7	6	8.8	0.3
O=C(Nc1ccc(-c2ccnc(Nc3ccc(N4CCOCC4)cc3)n2)cc1)C1CCCN1 (stereo unspecified) [XL019]						0.5				
NC(=O)c1ccc(I)c([N+](=O)[O-])c1 [Iniparib]						0				

SMILES	drug sensitivity score (FMOC02_3)	drug sensitivity score (FMOC24)	drug sensitivity score (FMOC02_2)	drug sensitivity score (FMOC25_2)	drug sensitivity score (FMOC22)	drug sensitivity score (FMOC25_1)	drug sensitivity score (FMOC14)	drug sensitivity score (FMOC09)	drug sensitivity score (FMOC03)	drug sensitivity score (FMOC06)
Cc1ccc2nc(CN(CCN(Cc3nc4ccc(C)cc4[nH]3)Cc3nc4ccc(C)cc4[nH]3)Cc3nc4ccc(C)cc4[nH]3)[nH]c2c1						3.9				
CC[C@@]1(O)C(=O)OCc2c1cc1n(c2=O)Cc2cc3ccccc3nc2-1 [Camptothecin]						17				
S=P(N1CC1)(N1CC1)N1CC1 [Thio-TEPA]						0.7				
O=[N+]([O-])c1ccc2c(c1)S(=O)(=O)C=C2 [Stattic]						6.3				
COc1ccc2c(OCc3nnc4ccc(-c5ccccc5)nn34)ccnc2c1 [AMG-208]						1.3				
CS(=O)(=O)c1ccc(C2=C(c3ccccc3)C(=O)OC2)cc1 [Rofecoxib]						0				
Cc1c(CN2CCN(C(=O)[C@H](C)O)CC2)sc2c(N3CCOCC3)nc(-c3cnc(N)nc3)nc12 [Apitolisib]						18.1				
N[C@@H](Cc1ccc(N(CCCl)CCCl)cc1)C(=O)O [Melphalan]						0				
O=NN(CCCl)C(=O)NC1CCCCC1 [Lomustine]						0				
CCOc1cc2ncc(C#N)c(Nc3ccc(F)c(Cl)c3)c2cc1NC(=O)/C=C/CN(C)C [Pelitinib]						13.1				
CNC(=O)c1cccc(-c2ccc3c(N4CCOC[C@@H]4C)nc(N4CCOC[C@@H]4C)nc3n2)c1 [AZD2014]						20.5				
O=C(O)CSc1cc(NS(=O)(=O)c2ccc(Br)cc2)c2ccccc2c1O [UMI-77]						14.3				
N#Cc1c(Oc2ccc(F)c(NC(=O)Cc3cccc(C(F)(F)F)c3)c2)ccc2nc(NC(=O)C3CC3)sc12 [TAK-632]						4.4				
CN(C)/N=N/c1[nH]cnc1C(N)=O [Dacarbazine]						0				
Cn1c(CCCC(=O)O)nc2cc(N(CCCl)CCCl)ccc21 [Bendamustine]						0				
Cc1csc(-c2nnc(Nc3ccc(Oc4ncccc4-c4ccnc(N)n4)cc3)c3ccccc23)c1 [AMG-900]						0.8				
CN(C)c1nc(N(C)C)nc(N(C)C)n1 [Altretamine]						0				
CN[C@@H](C)C(=O)N[C@H](C(=O)N1CCC[C@H]1c1nc(C(=O)c2ccc(F)cc2)cs1)C1CCCCC1 [LCL161]						7.7				
COc1ccc(Cl)c(Nc2nc3ccccc3nc2NS(=O)(=O)c2cccc(NC(=O)C(C)(C)N)c2)c1 [Pilaralisib]						2.2				
Cc1sc2c(c1C)C(c1ccc(Cl)cc1)=N[C@@H](CC(=O)Nc1ccc(O)cc1)c1nnc(C)n1-2 [OTX015]						6.3				
C[C@]12O[C@H](C[C@]1(O)CO)n1c3ccccc3c3c4c(c5c6ccccc6n2c5c31)CNC4=O [Lestaurtinib]						5.3				
OCCn1cc(-c2cnc3nnn(Cc4ccc5ncccc5c4)c3n2)cn1						0				
Cc1nc(N)sc1-c1ccnc(Nc2ccc(N3CCOCC3)cc2)n1 [CYC-116]						6.4				
Oc1ncc(N(CCCl)CCCl)c(O)n1 [Uramustine]						0.1				

From the supplement of paper PMC9938120
